Laboratory results: PubChem BioAssay (NCI)
Where “and” joins values, the source holds several entries; their conditions need not be identical. Equal entries are not always repeated.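 Compound exposure: 48 hours, 5 concentrations, 96-well plates. GI50 marks 50% less growth. Definition used: TGI = concentration required for complete inhibition of growth.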

Tests used:
Experiment in all cases: NCI anticancer screen, dose series, 48 h
A498 renal = system: A498 renal
BT-549 breast = system: BT-549 breast
CAKI-1 renal = system: CAKI-1 renal
HS 578T breast = system: HS 578T breast
IGROV1 ovarian = system: IGROV1 ovarian
LOX IMVI melanoma = system: LOX IMVI melanoma
OVCAR-5 ovarian = system: OVCAR-5 ovarian
SK-OV-3 ovarian = system: SK-OV-3 ovarian
UACC-62 melanoma = system: UACC-62 melanoma
UO-31 renal = system: UO-31 renal

Compound | GI50 (A498 renal) | TGI (A498 renal) | GI50 (BT-549 breast) [nM] | TGI (BT-549 breast) | GI50 (CAKI-1 renal) | TGI (CAKI-1 renal) | GI50 (HS 578T breast) | TGI (HS 578T breast) [nM] | GI50 (IGROV1 ovarian) | TGI (IGROV1 ovarian) | GI50 (LOX IMVI melanoma) | TGI (LOX IMVI melanoma) | GI50 (OVCAR-5 ovarian) [nM] | TGI (OVCAR-5 ovarian) | GI50 (SK-OV-3 ovarian) [nM] | TGI (SK-OV-3 ovarian) | GI50 (UACC-62 melanoma) [nM] | TGI (UACC-62 melanoma) | GI50 (UO-31 renal) | TGI (UO-31 renal)
CCN(CC)CCC(CNc1ccnc2cc(Cl)ccc12)c1ccc(Cl)cc1 (stereo unspecified) | 1210 nM | 2760 nM | 1730 | 3400 nM | 496 nM | 2360 nM | 1660 nM | 4670 | 2270 nM | 7330 nM | 1020 nM | 2380 nM | 3010 | 11200 nM | 2100 | 5400 nM | 1180 | 2690 nM | 642 nM | 2070 nM
CN1CCN(C2CCN(C(=O)Nc3cc(Oc4ccc(NC(=O)C5(C(=O)Nc6ccc(F)cc6)CC5)c(F)c4)ccn3)CC2)CC1 | 315 nM | 1380 nM | 1020 | > 2710 nM | 932 nM | > 10000 nM | 688 nM | > 2520 | 1100 nM | > 10000 nM | 1040 nM | > 10000 nM | 1580 | > 10000 nM | 1300 | > 10000 nM | 771 | > 2020 nM | 1460 nM | > 10000 nM
COc1cc(C(=O)N2CCN(C=O)C2=S)cc(OC)c1OC | 20500 nM | 37600 nM | 25000 | 62400 nM | 13600 nM | 26700 nM | 27600 nM | > 100000 | 21900 nM | 57300 nM | 16400 nM | 33500 nM | 48500 | > 100000 nM | 21900 | 72800 nM | 15800 | 30400 nM | – | 3360 nM
N#Cc1c(NC(=O)NCc2ccccc2)sc2c1CCCCC2 | 218 nM | 1100 nM | 923 | > 100000 nM | 659 nM | > 100000 nM | 314 nM | 9330 | 719 nM | > 100000 nM | 573 nM | > 100000 nM | 2050 | > 100000 nM | 799 | > 100000 nM | 533 | > 40200 nM | 626 nM | > 100000 nM
COc1cccc2c1C(=O)c1c(O)c3c(c(O)c1C2=O)C[C@@](O)(C(=O)CO)C[C@@H]3OC1CC(N)CC(C)O1 (stereo partly specified) | 111 nM and 37.5 nM | 366 nM and 165 nM | 106 | 460 nM and 215 nM | 9.36 nM and 8.12 nM and 26.3 nM | 119 nM and 377 nM | 50.4 nM and 119 nM | – | 50.4 nM and 43.6 nM | 1250 nM and 1600 nM | 29.5 nM and 23.1 nM | 262 nM and 120 nM | 116 | 775 nM and 799 nM | 83.7 | 940 nM and 3520 nM | 30.8 | 148 nM and 69.1 nM | 192 nM and 362 nM | 771 nM and 1610 nM
CSc1nc(=O)n(CCC#N)nc1SC | – | > 100000 nM | – | 55100 nM | – | > 100000 nM | – | > 100000 | – | > 100000 nM | – | 43500 nM | – | > 100000 nM | – | > 100000 nM | – | > 100000 nM | – | > 100000 nM
NC(=O)/C=C/C(=O)c1c(Cl)cccc1Cl | 1440 nM | 2740 nM | 1590 | 3030 nM | 971 nM | 2500 nM | 2200 nM | 5150 | 1390 nM | 2800 nM | 793 nM | 2160 nM | 1740 | 3410 nM | 2600 | 6380 nM | 1510 | 2840 nM | 429 nM | 859 nM
COc1ccc(OC)c2c1[nH]c(=O)c1c3ccccc3cn21 | 1770 nM | 3200 nM | 2270 | 5290 nM | 1090 nM | 2390 nM | 2180 nM | 5060 | < 28.1 nM | 1430 nM | 1400 nM | 2880 nM | 1870 | 3690 nM | 1470 | 2970 nM | 1550 | 2920 nM | 1110 nM | 2380 nM
CCN1CCN(C(=O)[C@@]2(C)CC[C@]3(C)CC[C@]4(C)C(=CC(=O)[C@@H]5[C@@]6(C)CC[C@H](OC7C[C@@H](O)[C@@H](O)C(C)O7)C(C)(C)[C@@H]6CC[C@]54C)[C@@H]3C2)CC1 (stereo partly specified) | 8960 nM | 17000 nM | 5840 | 13000 nM | 7810 nM | 14800 nM | 7520 nM | 17800 | 1680 nM | 6390 nM | 1010 nM | 2000 nM | 1190 | 3120 nM | 9960 | 19500 nM | 892 | 1750 nM | 757 nM | 1530 nM
c1ccc(-c2nnc(-c3ccccn3)s2)nc1 | > 100000 nM | > 100000 nM | > 100000 | > 100000 nM | > 100000 nM | > 100000 nM | > 100000 nM | > 100000 | 27300 nM | > 100000 nM | > 100000 nM | > 100000 nM | > 100000 | > 100000 nM | > 100000 | > 100000 nM | > 100000 | > 100000 nM | 22300 nM | > 100000 nM
Cc1cc(C)c2c(n1)sc1c(Nc3ccc(Cl)cc3)ncnc12 | < 13.3 nM | 491 nM | < 16.1 | > 100000 nM | < 10 nM | > 27600 nM | > 100000 nM | > 100000 | > 100000 nM | > 100000 nM | < 10 nM | > 100000 nM | < 12.5 | > 100000 nM | 41.8 | > 100000 nM | < 10 | – | < 10 nM | –
C=C1C(=O)OC2CC(C)C(C(CC(C)=O)OC(C)=O)=CCC12 (stereo unspecified) | – | 39400 nM | – | 15200 nM | – | 8050 nM | – | > 100000 | – | 29000 nM | – | 18800 nM | – | 31600 nM | – | > 100000 nM | – | 25400 nM | – | 29700 nM
COc1ccc(Sc2[nH]c(C(C)=O)c3ccccc23)cc1 | 265 nM | 848 nM | 3130 | 17400 nM | 2860 nM | 24000 nM | 10900 nM | 32600 | 11800 nM | 43000 nM | 11800 nM | 24400 nM | 17300 | 53100 nM | 1790 | 10500 nM | 10300 | 22000 nM | 5840 nM | 23400 nM
